We go through one compound from article PMC10747661, “Preparation of trans-Crocetin with High Solubility, Stability, and Oral Bioavailability by Incorporation into Three Types of Cyclodextrins” (Pharmaceutics, 2023).

Data set [1] can be described thus: Dissolution test (USP paddle method). The class given is physicochemical. Particulars: phosphate buffer pH 6.8, 900 mL, 100 rpm, 37 °C. On the procedure:
The dissolution of CRT, PMs, and ICs was evaluated using the USP (version 26) paddle method with a dissolution tester (Tianjin University Electronics Co., Ltd., Tianjin, China). The dissolution medium was phosphate buffer (pH 6.8, 900 mL); the paddles were rotated at 100 rpm at 37.0 ± 0.5 °C. A sample volume of 5 mL was withdrawn from the dissolution medium at predetermined sampling points, filtered using a […] microporous filter membrane, and analyzed via HPLC. All dissolution tests were performed in triplicate.

A short description of data set [2]: Solubility determination. In kind it is physicochemical. As to conditions: thermodynamic from solid, 25 °C. On the procedure:
Drug solubility at 25 ± 0.5 °C was determined in water and phosphate buffer (pH 6.8). Excesses of CRT and each IC were added to each fluid and placed in a thermostatic water bath in the dark at 25 ± 0.5 °C with a constant shaking rate of 100 rpm for 72 h. After the equilibrium state was reached, the solutions were centrifuged for 15 min, and 2 mL of the supernatant was diluted with an appropriate amount of methanol. Drug concentrations were determined using HPLC.

A short description of data set [3]: Effect of storage on stability (heat, light, moisture). The class given is physicochemical. As to conditions: 60 ± 0.5 °C, 10 days. On the procedure:
All samples were sealed in transparent glass bottles and divided into three groups, each containing CRT/α-CD IC (500 mg), CRT/HP-β-CD IC (500 mg), CRT/γ-CD IC (500 mg), and intact CRT (500 mg). The first group was stored at 60 ± 0.5 °C for 10 days. The second group was stored at 25 ± 0.5 °C with a light intensity of 4500 ± 500 lx for 10 days. The third group was stored at 25 ± 0.5 °C with 75% relative humidity for 10 days. The CRT contents were sampled and measured on days 0, 5, and 10. Each test was repeated at least three times.

Data set [4] is described as follows: Pharmacokinetics study after intragastric administration. The class given is in vivo. Particulars: Sprague-Dawley, rat, plasma, po, SD rats, 20 mg/kg intragastric, n = 6. On the procedure:
Twenty-four SD rats were randomly divided into four groups and administered CRT/α-CD IC, CRT/HP-β-CD IC, CRT/γ-CD IC, or intact CRT. All rats were fasted for 12 h and only provided water before experiments. All samples at a dose of 20 mg/kg body weight were administered intragastrically. Blood samples (0.4 mL) were collected from the orbital venous plexus at predetermined time points (0.083, 0.167, 0.25, 0.5, 1, 2, 4, 6, 8, 12, and 24 h) into tubes containing heparin sodium. The blood samples were centrifuged immediately at 4000 rpm for 15 min; the supernatant layer of plasma was separated and stored at 4 °C for 24 h. CRT in plasma was extracted with 600 μL methanol with an internal standard of 10 μL ATRA from 200 μL plasma samples and centrifuged at 10,000 rpm for 15 min at 4 °C. The supernatant layer was transferred to a new tube, concentrated to remove solvents under the LSE-1K vacuum centrifuge concentrator (JTLIANGYOU, Changzhou, China), and redissolved in 200 μL of methanol for analysis. The concentration of CRT was determined using an HPLC (Waters HPLC system consisting of a 2695–2487 UV detector, Milford, MA, USA) using a COSMOSIL-C18 (150 mm × 4.6 mm, 5 μm) column with a detection wavelength of 424 nm. The injection volume was 20 μL, the column temperature was 35 °C, the mobile phase was methanol with water and glacial acetic acid in a ratio (v:v:v) of 92:7.7:0.3, and the flow rate was 1 mL/min. The pharmacokinetic parameters were calculated using DAS 2.0. Relative bioavailability percentage was calculated as follows:Relative bioavailability (%) = (AUC0–∞ IC/AUC0–∞ CRT) × 100 (2)

Details of data set [5]: method as in PMID 16131146. Particulars: mice, oral, cited from earlier work.
Details of data set [6]: method as in PMID 21112749, PMID 21398065. Particulars: humans, CRT or saffron tea orally, cited from earlier work.

Values after ≈ are worked out from the molar mass of the structure shown. Where two headings read alike, the source gives them in different places.

By solubility is commonly meant the dissolved amount per volume that the medium holds. The AUC(0-inf) is the area under the concentration-time curve extrapolated to infinity. A low value points to less exposure. What is called Cmax is the maximum level reached in the sampled fluid or tissue. A word on the Tmax: it is the time at which the peak concentration occurs. One may read the half-life as the time needed for the level to fall by half in the phase considered. Read a high half-life as slow decline. With `CC(/C=C/C=C(\C)C(=O)O)=C\C=C\C=C(C)\C=C\C=C(/C)C(=O)O` [CRT, Crocetin], the “cumulative dissolution rate at 180 min” value in data set [1] was determined as 13%. For the same compound, the solubility at 72 h in data set [2] (phosphate buffer, pH 6.86, aqueous buffer, buffer salt, read-out: Solubility of CRT in pH6.86 Buffer Salt) turned out to be 1.84 ± 0.11 µg/mL. Moreover, in data set [2] (water, read-out: Solubility of CRT in H2O), the solubility at 72 h was 1.23 ± 0.07 µg/mL (≈ 3.75 µM). Moreover, in data set [3], the “relative content (retention) of CRT after thermal treatment” value came to 80%. Moreover, in data set [4], the AUC(0-inf) was determined as 2660 ± 196 ng·h/mL, the Cmax came out at 545 ± 23 ng/mL, the Tmax was 2 h and the half-life was 2.06 ± 0.237 h. Also, the AUC(0-t) in data set [4] (read-out: AUC0–12) was found to be 2410 ± 163 ng·h/mL. Besides, the MRT last in data set [4] (read-out: MRT0–12) was found to be 3.03 ± 0.082 h. Also, the “time of highest plasma concentration” value in data set [5] (dose of 117.2 mg/mL) is given as “approximately 2 h”. Moreover, the “highest plasma concentration of CRT” value in data set [5] was 1249.3 ± 788.1 ng/mL. In data set [6] (based on the dose), the “concentrations of CRT in the blood” value is 100.9 to 279.7 ng/mL. For the same compound, in data set [6], the Tmax result is reported as “approximately 4.6 h”.
